# ChEMBL document CHEMBL1201862, “PubChem BioAssay data set” (2004)
#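 1) Cells in 96-well plates. 2) Compound, 48 h, 5 concentrations. 3) Linear interpolation between surrounding doses. 4) Unreached endpoint = highest concentration. GI50 is the concentration that inhibits growth by half.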 Activity calls are given as the source filed them. Cut-off read from the data, not from the text of the source: active = GI50 up to about 1.1 µM and inactive = higher.
# Columns and labels:
# Experiment in all cases: DTP human tumour cell line panel, 48 h
# [1] = system: A549
# [2] = system: 786-0
# [3] = system: OVCAR-5
# [4] = system: OVCAR-4
# [5] = system: SK-MEL-28
# [6] = system: SR
# [7] = system: NCI-H23
# [8] = system: DMS-273
# [9] = system: SK-MEL-5
# [10] = system: OVCAR-3
# [11] = system: SNB-19
# [12] = system: NCI-H522
# [13] = system: HL-60
# [14] = system: HCC 2998
# [15] = system: KM-20L2
# [16] = system: NCI-H226
# [17] = system: DMS-114
# [18] = system: SW-620
# [19] = system: CAKI-1
# [20] = system: SNB-78
# [21] = system: LOX IMVI
# [22] = system: OVCAR-8
# [23] = system: RPMI-8226
# [24] = system: UACC-257
# [25] = system: NCI-H460
# [26] = system: SN12C
# [27] = system: M19-MEL
# [28] = system: M14
# [29] = system: SF-295
# [30] = system: KM12
# [31] = system: HOP-62
# [32] = system: CCRF-CEM
# [33] = system: SF-268
# [34] = system: HCT-116
# [35] = system: Malme-3M
# [36] = system: EKVX
# [37] = system: SK-OV-3
# [38] = system: IGROV-1
# [39] = system: UO-31
# [40] = system: ACHN
# [41] = system: DLD-1
# [42] = system: UACC-62
# [43] = system: HOP-18
# [44] = system: HOP-92
# [45] = system: SNB-75
# [46] = system: MOLT-4
# [47] = system: K562
# [48] = system: HT-29
# [49] = system: TK-10
# [50] = system: SF-539
# [51] = system: SK-MEL-2
# [52] = system: U-251
# [53] = system: RXF 393
# [54] = system: COLO 205
# [55] = system: LXFL 529
# [56] = system: HCT-15
# [57] = system: A498
smiles,measurement,setting,value
C=Cc1ccc(C)[n+](C[Si](C)(C)O[Si](C)(C)C[n+]2cc(C=C)ccc2C)c1,GI50,[1],71.8 µM (inactive)
same,GI50,[2],> 100 µM (inactive)
same,GI50,[3],> 100 µM (inactive)
same,GI50,[4],> 100 µM (inactive)
same,GI50,[5],> 100 µM (inactive)
same,GI50,[6],> 100 µM (inactive)
same,GI50,[7],> 100 µM (inactive)
same,GI50,[8],> 100 µM (inactive)
same,GI50,[9],> 100 µM (inactive)
same,GI50,[10],> 100 µM (inactive)
same,GI50,[11],> 100 µM (inactive)
same,GI50,[12],> 100 µM (inactive)
same,GI50,[13],> 100 µM (inactive)
same,GI50,[14],> 100 µM (inactive)
same,GI50,[15],> 100 µM (inactive)
same,GI50,[16],> 100 µM (inactive)
same,GI50,[17],> 100 µM (inactive)
same,GI50,[18],> 100 µM (inactive)
same,GI50,[19],> 100 µM (inactive)
same,GI50,[20],> 100 µM (inactive)
same,GI50,[21],> 100 µM (inactive)
same,GI50,[22],> 100 µM (inactive)
same,GI50,[23],> 100 µM (inactive)
same,GI50,[24],> 100 µM (inactive)
same,GI50,[25],> 100 µM (inactive)
same,GI50,[26],> 100 µM (inactive)
same,GI50,[27],> 100 µM (inactive)
same,GI50,[28],> 100 µM (inactive)
same,GI50,[29],> 100 µM (inactive)
same,GI50,[30],> 100 µM (inactive)
same,GI50,[31],> 100 µM (inactive)
same,GI50,[32],> 100 µM (inactive)
same,GI50,[33],> 100 µM (inactive)
same,GI50,[34],> 100 µM (inactive)
same,GI50,[35],> 100 µM (inactive)
same,GI50,[36],54.2 µM (inactive)
same,GI50,[37],> 100 µM (inactive)
same,GI50,[38],> 100 µM (inactive)
same,GI50,[39],> 100 µM (inactive)
same,GI50,[40],> 100 µM (inactive)
same,GI50,[41],> 100 µM (inactive)
same,GI50,[42],> 100 µM (inactive)
same,GI50,[43],> 100 µM (inactive)
same,GI50,[44],> 100 µM (inactive)
same,GI50,[45],> 100 µM (inactive)
same,GI50,[46],> 100 µM (inactive)
same,GI50,[47],> 100 µM (inactive)
same,GI50,[48],> 100 µM (inactive)
same,GI50,[49],> 100 µM (inactive)
same,GI50,[50],> 100 µM (inactive)
same,GI50,[51],> 100 µM (inactive)
same,GI50,[52],> 100 µM (inactive)
same,GI50,[53],> 100 µM (inactive)
same,GI50,[54],> 100 µM (inactive)
same,GI50,[55],> 100 µM (inactive)
CCc1cc2c(c3[nH]ccc13)[C@@H](C)C[C@H]2C,GI50,[1],19.6 µM (inactive)
same,GI50,[2],15 µM (inactive)
same,GI50,[5],16.1 µM (inactive)
same,GI50,[7],17.8 µM (inactive)
same,GI50,[8],18 µM (inactive)
same,GI50,[9],16.9 µM (inactive)
same,GI50,[10],20 µM (inactive)
same,GI50,[12],16.2 µM (inactive)
same,GI50,[13],21.8 µM (inactive)
same,GI50,[56],14.4 µM
same,GI50,[14],21.2 µM (inactive)
same,GI50,[57],15.6 µM (inactive)
same,GI50,[16],16.4 µM (inactive)
same,GI50,[17],19.9 µM (inactive)
same,GI50,[18],19.8 µM (inactive)
same,GI50,[19],15.8 µM (inactive)
same,GI50,[20],16.4 µM (inactive)
same,GI50,[21],12.7 µM (inactive)
same,GI50,[22],19.7 µM (inactive)
same,GI50,[23],20.1 µM (inactive)
same,GI50,[24],19.9 µM (inactive)
same,GI50,[25],14.9 µM (inactive)
same,GI50,[26],15.6 µM (inactive)
same,GI50,[27],17.2 µM (inactive)
same,GI50,[28],17.2 µM (inactive)
same,GI50,[29],18.8 µM (inactive)
same,GI50,[30],19.1 µM (inactive)
same,GI50,[32],20.4 µM (inactive)
same,GI50,[34],16 µM (inactive)
same,GI50,[35],18.6 µM (inactive)
same,GI50,[36],20.7 µM (inactive)
same,GI50,[37],30.5 µM (inactive)
same,GI50,[38],19.4 µM (inactive)
same,GI50,[39],18.3 µM (inactive)
same,GI50,[40],16.7 µM (inactive)
same,GI50,[41],16.4 µM (inactive)
same,GI50,[42],16.9 µM (inactive)
same,GI50,[43],18.4 µM (inactive)
same,GI50,[44],16.2 µM (inactive)
same,GI50,[45],17.5 µM (inactive)
same,GI50,[46],14.3 µM (inactive)
same,GI50,[47],21.6 µM (inactive)
same,GI50,[48],19.7 µM (inactive)
same,GI50,[49],19.5 µM (inactive)
same,GI50,[50],> 10 µM (inactive)
same,GI50,[52],16.4 µM (inactive)
same,GI50,[53],13.8 µM (inactive)
same,GI50,[54],19.9 µM (inactive)
same,GI50,[55],18 µM (inactive)
O=C(Nc1c(O)[nH]c(=S)[nH]c1=O)c1ccccc1,GI50,[1],> 100 µM (inactive)
same,GI50,[2],> 100 µM (inactive)
same,GI50,[3],> 100 µM (inactive)
same,GI50,[4],> 100 µM (inactive)
same,GI50,[5],> 100 µM (inactive)
same,GI50,[6],> 100 µM (inactive)
same,GI50,[7],> 100 µM (inactive)
same,GI50,[9],> 100 µM (inactive)
same,GI50,[10],> 100 µM (inactive)
same,GI50,[11],> 100 µM (inactive)
same,GI50,[12],> 100 µM (inactive)
same,GI50,[13],> 100 µM (inactive)
same,GI50,[56],> 100 µM
same,GI50,[15],> 100 µM (inactive)
same,GI50,[57],> 100 µM (inactive)
same,GI50,[16],> 100 µM (inactive)
same,GI50,[17],> 100 µM (inactive)
same,GI50,[18],> 100 µM (inactive)
same,GI50,[19],> 100 µM (inactive)
same,GI50,[20],> 100 µM (inactive)
same,GI50,[21],> 100 µM (inactive)
same,GI50,[22],> 100 µM (inactive)
same,GI50,[23],> 100 µM (inactive)
same,GI50,[24],> 100 µM (inactive)
same,GI50,[25],> 100 µM (inactive)
same,GI50,[26],> 100 µM (inactive)
same,GI50,[27],> 100 µM (inactive)
same,GI50,[28],> 100 µM (inactive)
same,GI50,[29],> 100 µM (inactive)
same,GI50,[30],> 100 µM (inactive)
same,GI50,[31],> 100 µM (inactive)
same,GI50,[32],> 100 µM (inactive)
same,GI50,[33],> 100 µM (inactive)
same,GI50,[34],> 100 µM (inactive)
same,GI50,[35],> 100 µM (inactive)
same,GI50,[37],> 100 µM (inactive)
same,GI50,[38],> 100 µM (inactive)
same,GI50,[39],> 100 µM (inactive)
same,GI50,[40],> 100 µM (inactive)
same,GI50,[41],> 100 µM (inactive)
same,GI50,[42],> 100 µM (inactive)
same,GI50,[43],> 100 µM (inactive)
same,GI50,[44],> 100 µM (inactive)
same,GI50,[45],> 100 µM (inactive)
same,GI50,[46],> 100 µM (inactive)
same,GI50,[47],> 100 µM (inactive)
same,GI50,[48],> 100 µM (inactive)
same,GI50,[49],> 100 µM (inactive)
same,GI50,[50],> 100 µM (inactive)
same,GI50,[51],> 100 µM (inactive)
same,GI50,[52],> 100 µM (inactive)
same,GI50,[54],> 100 µM (inactive)
same,GI50,[55],> 100 µM (inactive)
